The text below walks through data of US7432360B2, “Multi-dose erythropoietin formulations” (Aventis Pharmaceuticals Inc., priority 2005, dated 2008).

Like-named read-outs stand apart in the source and are kept apart here.

A short description of data set [1]: Appearance of the solution when the preservative is used in the EPO formulation. In kind it is physicochemical. As for the experimental part:
Multi-dose EPO-containing solutions were formulated as sterile, non-pyrogenic, colorless aqueous solutions in water for injection at 10,000 units and 20,000 units concentration. Solutions prepared contained a 20 mM phosphate buffer (sodium phosphate monobasic monohydrate, and sodium phosphate dibasic heptahydrate), 0.01% w/v polysorbate 20 as an antiadsorbent, 0.45-0.8% w/v sodium chloride (depending on the preservative system that was used, the amount of sodium chloride was adjusted to produce an Osmolality of approximately 300 mOsm/kg), and a preservative system.

Data set [2] can be described thus: Stability of EPO in preserved formulations, reverse phase HPLC assay (% label claim). It is filed as physicochemical. To be noted: in the presence of thimerosal.
Method: Prototype batches were made using these selected preservatives and placed on stability at 5° C. and 25° C. Samples were tested by a reverse phase HPLC method.
Detection of the EPO protein was monitored at 210 nm.
The subject of data set [3] is indicator aerobic bacteria and molds. As to the kind of experiment: Preservative challenge test (USP and EP criteria). In kind it is cell-based. Conditions: in the EPO formulation.
The conditions of data set [4]: pH>3; cited from earlier work.
[5] abbreviates: preservative in EPO formulation (phosphate buffer, polysorbate 20, sodium chloride, pH approx. 7.0).

`COC(=O)c1ccc(O)cc1` [Methyl paraben]: in data set [1] (setting [5]), the appearance of solution entry is reported as “hazy to cloudy”. In the case of `C[CH2][Hg][S]c1ccccc1C(=O)[O-].[Na+]` [Thimerosal], in data set [2], the “chemical stability of the EPO formulation” value is “good chemical stability”. The appearance of solution entry in data set [1] (setting [5]) is “clear”. Moreover, the preservative efficacy result in data set [3] was “good preservative efficacy”.

Take `CC(C)(O)C(Cl)(Cl)Cl` [chlorobutanol]: the stability of chlorobutanol result in data set [4] is recorded as “not stable”. As to `Cc1cccc(O)c1` [m-cresol], the appearance of solution entry in data set [1] (setting [5]) was “hazy to cloudy”. Regarding `Oc1ccccc1` [phenol], the appearance of solution entry in data set [1] was “hazy to cloudy”. In the case of `O=[N+]([O-])[O-].[Hg+][c]1ccccc1` [phenyl mercuric nitrate], in data set [1] (setting [5]), the appearance of solution result was “cloudy”. The same measure, in the same setting: as for `CCCOC(=O)c1ccc(O)cc1` [propyl paraben], the entry is “hazy to cloudy”.
